Data: patent US20240390298A1, “CYCLOHEXYL BETA-HYDROXY ALKYL AMINES AND MEDICAL USES THEREOF” (ATROGI AB, priority 2021, published 2024)
Where a name gives a salt, the structure may show the parent alone.

How the values were obtained:
[1] = test system: L6-myotubes; assay: Glucose uptake in differentiated L6-myotubes (3H-2-deoxyglucose), compared to isoproterenol; type: cell-based; conditions: agonist 1×10^−5 M, 50 nM 3H-2-deoxyglucose; for Emax at 10 µM: read-out: Biological example 1: glucose uptake, activity compared to that of isoproterenol
In short: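 Serum-starved differentiated L6 myotubes stimulated with agonist at 1×10^−5 M for 1 h 40 min, re-dosed in glucose-free medium for 20 min, then given 50 nM ^3H-2-deoxyglucose for 10 min. Uptake read by β-counting of NaOH lysates; activity expressed relative to isoproterenol.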

[2] = test system: L6-myotubes; assay: Measurement of intracellular cAMP levels in differentiated L6 cells (alpha screen cAMP kit), compared to isoproterenol; type: cell-based; conditions: Rattus norvegicus, L6, 0.25 h, agonist 1×10^−5 M, 15 min, read-out: Biological example 2: intracellular cAMP levels, activity compared to that of isoproterenol
In short: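 L6 myoblasts were differentiated into myotubes over 7 days in 2% FBS, then serum-starved overnight. Agonist at 1×10^−5 M final was applied for 15 min in HBSS with 1% BSA, 5 mM HEPES and 1 mM IBMX, pH 7.4. After ethanol extraction and lysis, cAMP was quantified by AlphaScreen, with activity expressed relative to isoproterenol.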

Row | Structure (SMILES) | Biological example 1: glucose uptake, activity compared to that of isoproterenol [1] | Emax at 10 µM [2] [%] | Emax at 10 µM [1] [%]
1 | CC(=O)N[C@H]1CC[C@H](CC(C)(C)NC[C@@H](O)c2cccc(C#N)n2)CC1 [Example 135, N-((1R,4r)-4-(2-(((R)-2-(6-Cyanopyridin-2-yl)-2-hydroxyethyl)amino)-2-methylpropyl)cyclohexyl)acetamide] | + + | < 25 | –
2 | CCCS(=O)(=O)N[C@H]1CC[C@@H](CC(C)(C)NC[C@H](O)c2cncc(F)c2)CC1 [Example 198, N-((1S,4s)-4-(2-(((R)-2-(5-Fluoropyridin-3-yl)-2-hydroxyethyl)amino)-2-methylpropyl)cyclohexyl)propane-1-sulfonamide] | + + + | < 25 | –
3 | CCOC(=O)CO[C@H]1CC[C@@H](C(C)(C)NC[C@H](O)c2cccc(F)c2)CC1 [Example 124, Ethyl 2-(((1S,4s)-4-(2-(((R)-2-(3-fluorophenyl)-2-hydroxyethyl)amino-)propan-2-yl)cyclohexyl)oxy)acetate] | + + | < 25 | –
4 | CC(C)(C[C@H]1CC[C@@H](NC(=O)C(F)(F)F)CC1)NC[C@H](O)c1cccc(F)c1 [Example 168, 2,2,2-Trifluoro-N-((1S,4s)-4-(2-(((R)-2-(3-Fluorophenyl)-2-hydroxyethyl)-amino)-2-methylpropyl)cyclohexyl)acetamide hydrochloride] | + + + | < 25 | –
5 | CO[C@H]1CC[C@@H](CC(C)(C)NC[C@H](O)c2cccc(F)c2)CC1 [Example 13, (R)-1-(3-Fluorophenyl)-2-((1-((1s,4S)-4-methoxycyclohexyl)-2-methyl-propan-2-yl)amino)ethan-1-ol] | + + + | < 25 | –
6 | CC(C)(CC[C@H]1CC[C@H](C(=O)O)CC1)NC[C@H](O)c1cncc(F)c1 [Example 118, (1R,4r)-4-(3-(((R)-2-(5-Fluoropyridin-3-yl)-2-hydroxyethyl)amino)-3-methylbutyl)cyclohexane-1-carboxylic acid] | – | < 25 | 25 to 50
7 | CN(C)S(=O)(=O)[C@H]1CC[C@@H](CC(C)(C)NC[C@H](O)c2cccc(F)c2)CC1.Cl [Example 188, (1S,4s)-4-(2-(((R)-2-(3-fluorophenyl)-2-hydroxyethyl)amino)-2-methyl-propyl)-N,N-dimethylcyclohexane-1-sulfonamide hydrochloride] | + + + | 25 to 50 | –
8 | CC(C)(CC[C@H]1CC[C@@H](O)CC1)NC[C@H](O)c1cncc(F)c1 [Example 66, (1R,4s)-4-(3-(((R)-2-(5-Fluoropyridin-3-yl)-2-hydroxyethyl)amino)-3-methylbutyl)cyclohexan-1-ol dihydrochloride] | + + | < 25 | –
9 | CC(C)(C[C@H]1CC[C@H](NC(=O)OC(C)(C)C)CC1)NC[C@H](O)c1cccc(C(F)(F)F)n1 [Example 148, tert-Butyl ((1S,4r)-4-(2-(((S)-2-hydroxy-2-(6-(trifluoromethyl)pyridin-2-yl)ethyl)amino)-2-methylpropyl)cyclohexyl)carbamate] | + + + | < 25 | –
10 | CC(C)(C[C@H]1CC[C@@H](NS(=O)(=O)C(F)(F)F)CC1)NC[C@H](O)c1cncc(F)c1 [Example 199, 1,1,1-Trifluoro-N-((1S,4s)-4-(2-(((R)-2-(5-fluoropyridin-3-yl)-2-hydroxy-ethyl)amino)-2-methylpropyl)cyclohexyl)methanesulfonamide dihydrochloride] | + + + | < 25 | –
11 | CC(=O)N(C)[C@H]1CC[C@H](CC(C)(C)NC[C@H](O)c2cncc(F)c2)CC1.Cl [Example 182, N-((1R,4r)-4-(2-(((R)-2-(5-Fluoropyridin-3-yl)-2-hydroxyethyl)amino)-2-methylpropyl)cyclohexyl)-N-methylacetamide] | + + + | 25 to 50 | –
12 | COC(=O)[C@H]1CC[C@H](C(C)(C)NC[C@H](O)c2cncc(F)c2)CC1 [Example 100, Methyl (1R,4r)-4-(2-(((R)-2-(5-fluoropyridin-3-yl)-2-hydroxyethyl)amino)-propan-2-yl)cyclohexane-1-carboxylate] | + + + | < 25 | –
13 | O[C@@H](CNCCCC1CCC(OCc2ccccc2)CC1)c1cncc(F)c1 (stereo partly drawn) [Example 54, (R)-2-((3-((1r,4S)-4-(Benzyloxy)cyclohexyl)propyl)amino)-1-(5-fluoro-pyridin-3-yl)ethan-1-ol] | – | < 25 | 25 to 50
14 | CC(C)(C[C@H]1CC[C@@H](NC(=O)OC(C)(C)C)CC1)NC[C@H](O)c1cccc(C#N)n1 [Example 133, tert-Butyl ((1R,4s)-4-(2-(((5)-2-(6-Cyanopyridin-2-yl)-2-hydroxyethyl)-amino)-2-methylpropyl)cyclohexyl)carbamate] | + + | < 25 | –
15 | CO[C@@H]1CCC[C@H](C(C)(C)NC[C@H](O)c2cccc(F)c2)C1 (single isomer, unassigned) [Example 119] | + + + | < 25 | –
16 | O[C@@H](CNCCC[C@H]1CC[C@@H](OCc2ccccc2)CC1)c1cncc(F)c1 [Example 56, (R)-2-((3-((1s,4R)-4-(Benzyloxy)cyclohexyl)propyl)amino)-1-(5-fluoro-pyridin-3-yl)ethan-1-ol] | + + | < 25 | –
17 | CC(=O)N[C@H]1CC[C@@H](CC(C)(C)NC[C@H](O)c2cccc(C(F)(F)F)n2)CC1 [Example 149, N-((1R,4s)-4-(2-(((S)-2-Hydroxy-2-(6-(trifluoromethyl)pyridin-2-yl)-ethyl)amino)-2-methylpropyl)cyclohexyl)acetamide dihydrochloride] | + + | < 25 | –
18 | CC(C)(C[C@H]1CC[C@@H](NC(=O)OC(C)(C)C)CC1)NC[C@H](O)c1cncc(F)c1 [Example 174, tert-Butyl ((1S,4s)-4-(2-(((R)-2-(5-fluoropyridin-3-yl)-2-hydroxyethyl)-amino)-2-methylpropyl)cyclohexyl)carbamate] | + + + | < 25 | –
19 | CC(C)(C[C@H]1CC[C@@H](NC(=O)OC(C)(C)C)CC1)NC[C@H](O)c1cccc(C(F)(F)F)n1 [Example 147, tert-Butyl ((1R,4s)-4-(2-(((S)-2-hydroxy-2-(6-(trifluoromethyl)pyridin-2-yl)ethyl)amino)-2-methylpropyl)cyclohexyl)carbamate] | + + | < 25 | –
20 | CC(C)(CC[C@H]1CC[C@H](O)CC1)NC[C@H](O)c1cncc(F)c1 [Example 63, (1S,4r)-4-(3-(((R)-2-(5-Fluoropyridin-3-yl)-2-hydroxyethyl)amino)-3-methylbutyl)cyclohexan-1-ol] | – | < 25 | 25 to 50
21 | COC(=O)[C@H]1CC[C@@H](CCC(C)(C)NC[C@H](O)c2cccc(F)c2)CC1 [Example 111, Methyl (1S,4s)-4-(3-(((R)-2-(3-fluorophenyl)-2-hydroxyethyl)amino)-3-methylbutyl)cyclohexane-1-carboxylate] | + + + | 25 to 50 | –
22 | CC(C)(C[C@H]1CC[C@@H](N)CC1)NC[C@H](O)c1cccc(F)c1 [Example 163, (R)-2-((1-((1s,4S)-4-Aminocyclohexyl)-2-methylpropan-2-yl)amino)-1-(3-fluorophenyl)ethan-1-ol] | + + + | < 25 | –
23 | CC(=O)N[C@H]1CC[C@H](CC(C)(C)NC[C@H](O)c2cccc(C(F)(F)F)n2)CC1 [Example 151, N-((1S,4r)-4-(2-(((S)-2-Hydroxy-2-(6-(trifluoromethyl)pyridin-2-yl)-ethyl)amino)-2-methylpropyl)cyclohexyl)acetamide dihydrochloride] | + + + | < 25 | –
24 | CO[C@H]1CC[C@H](CC(C)(C)NC[C@H](O)c2cccc(F)c2)CC1 [Example 15, (R)-1-(3-Fluorophenyl)-2-((1-((1r,4R)-4-methoxycyclohexyl)-2-methyl-propan-2-yl)amino)ethan-1-ol] | + + + | < 25 | –
25 | CC(C)(C[C@H]1CC[C@H](NS(=O)(=O)C2CC2)CC1)NC[C@H](O)c1cccc(F)c1 [Example 161, N-((1R,4r)-4-(2-(((R)-2-(3-Fluorophenyl)-2-hydroxyethyl)amino)-2-methypropyl)cyclohexyl)cyclopropanesulfonamide hydrochloride] | + + | < 25 | –
26 | O=C(N[C@H]1CC[C@@H](CNC[C@H](O)c2cccc(F)c2)CC1)c1ccccc1 [Example 75, N-((1S,4s)-4-((((R)-2-(3-Fluorophenyl)-2-hydroxyethyl)amino)methyl)-cyclohexyl)benzamide] | + + | < 25 | –
